Laboratory results: patent publication US12419869B2, “Methods of treating multiple sclerosis” (Vanda Pharmaceuticals Inc., priority 2021, dated 2025)

What was measured:
[1] = tested on: peripheral lymphocyte count; assay type: in vivo, human
Description: PONVORY causes a dose-dependent reduction in peripheral lymphocyte count to 30-40% of baseline values because of reversible sequestration of lymphocytes in lymphoid tissues [see Clinical Pharmacology (12.2)]. PONVORY may therefore increase the susceptibility to infections. Life-threatening and rare fatal infections have been reported in association with other sphingosine 1-phosphate (SIP) receptor modulators.
Initiation of treatment with PONVORY should be delayed in patients with active infection until resolution. Lymphocyte counts returned to the normal range in 90% of patients within 1 week of stopping therapy in modeling studies [see Clinical Pharmacology (12.2)]. In Study 1, peripheral lymphocyte counts returned to normal range within 2 weeks after discontinuation of PONVORY, which was the first timepoint evaluated. Because residual pharmacodynamic effects, such as lowering effects on peripheral lymphocyte count, may persist for 1 to 2 weeks after discontinuation of PONVORY, vigilance for infection should be continued for 1 to 2 weeks after PONVORY is discontinued [see Warnings and Precautions (5.12)].
In Study 1, the proportion of patients who experienced lymphocyte counts less than 0.2×10^9/L was 3.2%. Effective diagnostic and therapeutic strategies should be employed in patients with symptoms of infection while on therapy. Consider interruption of treatment with PONVORY if a patient develops a serious infection.

heart rate = test: Heart rate pharmacodynamics, dose dependence; parameters: species or system human; conditions: in vivo
Experimental: PONVORY causes a transient dose-dependent reduction in heart rate (HR) and AV conduction delays upon treatment initiation [see Warnings and Precautions (5.2)]. The heart rate decreases plateaued at doses greater than or equal to 40 mg [2 times the recommended maintenance dosage], and bradyarrhythmic events (AV blocks) were detected at a higher incidence under PONVORY treatment, compared to placebo. This effect starts within the first hour of dosing and is maximal at 2-4 hours post-dose. HR generally returns to pre-dose values by 4-5 hours post-dose on Day 1, and the effect diminishes with repeated administration. indicating tolerance.

[2] = Excretion after single oral administration of 14C-ponesimod; assay type: in vivo, human; conditions: single oral 14C-ponesimod
Description: Following a single oral administration of ^14C-ponesimod, 57% to 80% of the dose was recovered in feces (16% as unchanged ponesimod), and 10% to 18% in urine (no unchanged ponesimod).

[3] = Pharmacokinetics in renal impairment; assay type: in vivo, human; conditions: moderate or severe renal impairment
Description: No dose adjustment is necessary in patients with renal impairment. […] The effect of dialysis on the PK of ponesimod has not been studied. Due to the high plasma protein binding (greater than 99%) of ponesimod, dialysis is not expected to alter the total and unbound ponesimod concentration, and no dose adjustments are anticipated based on these considerations.

[4] = tested on: P-gp, BCRP, OATP1B1, or OATP1B3 transporters; test: Transporter substrate assessment; assay type: in vitro ADME
Description: Drugs that are inhibitors of these transporters are unlikely to impact the PK of ponesimod.

S1P receptor 1 = S1P receptor 1 (Homo sapiens, UniProt P21453); test: S1P receptor binding / activity
Description: Ponesimod is extensively metabolized prior to excretion in humans, though unchanged ponesimod was the main circulating component in plasma. […] M13 and M12 are respectively about 20% and 6% of total drug-related exposure.

Solubility in water = assay type: physicochemical
pregnant rabbits = test: Embryofetal development study in pregnant rabbits, oral; assay type: in vivo
Description: No maternal toxicity was observed.

female rats = test: Pre- and postnatal development study in female rats, oral; assay type: in vivo, rat
Description: There are no data on the presence of PONVORY in human milk, the effects on the breastfed infant, or the effects of the drug on milk production.

rats = test: Carcinogenesis, rats, oral up to 2 years; assay type: in vivo, rat
Experimental: Plasma exposure at the highest dose tested in males (30 mg/kg/day) was approximately 4 times that in humans at the recommended human dose (RHD) of 20 mg.

[5] = Oral toxicity studies of 13 to 52 weeks in dogs, coronary arterial lesions; assay type: in vivo, dog; conditions: dog, in vivo; 13 to 52 weeks oral
Experimental: (§1) At the NOAEL (2 mg/kg/day) for these findings, plasma exposures (AUC) were approximately 2 times that expected in humans at the RHD.

dogs = test: as above; assay type: in vivo, dog; conditions: dogs
Experimental: as §1

[6] = tested on: CYP450, UGT and non-CYP450 oxidative enzymes; test: In vitro studies with human liver preparations (metabolism); assay type: in vitro ADME
Description: Experiments with human liver preparations indicate that metabolism of ponesimod to M13 occurs primarily through a combination of non-Cytochrome P450 (CYP450) enzymatic activities. Multiple CYP450 (CYP2J2, CYP3A4, CYP3A5, CYP4F3A, and CYP4F12) and non-CYP450 enzymes catalyze the oxidation of ponesimod to M12. Ponesimod also undergoes direct glucuronidation (mainly UGT1A1 and UGT2B7).

CYP3A4 and UGT1A1 = test: In vitro assessments and limited clinical data, strong CYP3A4 and UGT1A1 inducers; conditions: e.g., rifampin, phenytoin, carbamazepine
Description: It is unclear whether this decrease in ponesimod systemic exposure would be considered of clinical relevance. Coadministration of PONVORY with strong CYP3A4 and UGT1A1 inducers is not recommended.

Chain of S1P receptor 1 (P21453 whole entry): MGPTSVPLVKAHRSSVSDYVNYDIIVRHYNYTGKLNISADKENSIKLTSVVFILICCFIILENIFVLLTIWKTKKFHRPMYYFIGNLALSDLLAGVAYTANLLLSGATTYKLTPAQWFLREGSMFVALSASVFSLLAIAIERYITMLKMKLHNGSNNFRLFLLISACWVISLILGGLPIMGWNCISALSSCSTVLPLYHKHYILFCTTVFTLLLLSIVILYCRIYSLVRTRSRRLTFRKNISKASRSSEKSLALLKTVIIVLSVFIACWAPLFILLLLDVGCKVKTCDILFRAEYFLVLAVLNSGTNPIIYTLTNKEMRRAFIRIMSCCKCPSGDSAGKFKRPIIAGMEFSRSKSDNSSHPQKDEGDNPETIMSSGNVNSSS

## CCC/N=C1\S/C(=C\c2ccc(OC[C@H](O)CO)c(Cl)c2)C(=O)N1c1ccccc1C [Ponesimod, (R)-5-[3-chloro-4-(2,3-dihydroxy-propoxy)-benz[Z]ylidene]-2-([Z]-propylimino)-3-o-tolyl-thiazolidin-4-one]
[1]; Study 1, first timepoint evaluated
  Time for peripheral lymphocyte counts to return to normal range after discontinuation: ≤ 2 weeks
[1]; dose-dependent
  Peripheral lymphocyte count reduced to % of baseline values: 30-40 % of baseline
[1]; human, in vivo
  Proportion of patients with lymphocyte counts less than 0.2×10^9/L: 3.2%
Heart rate
  Dose at which heart rate decreases plateaued: greater than or equal to 40 mg
[2]
  Dose recovered in feces as unchanged ponesimod: 16%
[3]
  Change in Cmax and AUC vs normal renal function: no significant changes
[4]
  Substrate of P-gp, BCRP, OATP1B1, or OATP1B3 transporters: not a substrate
S1P receptor 1
  Binding to S1P receptor 1: binds with high affinity
Solubility in water
  Solubility in water: practically insoluble or insoluble in water
Pregnant rabbits; 0, 0.25, 1, or 4 mg/kg/day oral, at highest dose
  Embryofetal findings in rabbits: an increase in post-implantation loss and fetal variations
Pregnant rabbits; rabbit, in vivo
  No-effect dose for adverse effects on embryofetal development in rabbits: 1 mg/kg/day
Pregnant rabbits; rabbits
  Plasma exposure at no-effect dose vs humans at RHD: lower than that in humans
Female rats; 5, 10, or 20 mg/kg oral
  No-effect dose for adverse effects on pre- and postnatal development in rats: not identified
Female rats; rat, in vivo
  Plasma exposure (AUC) in dams at lowest dose tested vs humans at RHD: less than that in humans
Female rats; suggesting excretion in milk
  Presence in offspring after dosing of female rats during pregnancy and lactation: detected in the plasma of the offspring
rats; rat, in vivo
  Plasma exposure at highest dose in male rats (30 mg/kg/day) relative to humans at RHD: approximately 4 times
rats; up to 30 (males) / 100 (females) mg/kg/day
  Carcinogenicity findings in rats: did not result in an increase in tumors
[5]
  NOAEL: 2 mg/kg/day
dogs
  Plasma exposures (AUC) at NOAEL relative to humans at RHD: approximately 2 times
[6]
  Contribution of enzymes to metabolism: without major contribution by any single enzyme
CYP3A4 and UGT1A1
  Effect of strong CYP3A4 and UGT1A1 inducers on systemic exposure: may decrease the systemic exposure
